Some test systems named below: DMS-273; SNB-78; LXFL 529; DLD-1; KM-20L2; XF498; HOP-18; DMS-114; RXF 631.
Experiment in all cases: NCI-60 cell line screen, 48 h

Each structure is given as a SMILES string.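 The compound was tested at five concentrations on cells cultured in 96-well plates, with a 48-hour exposure period. Here, GI50 denotes the concentration required for 50% inhibition of growth.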 Calls of active or inactive are those of the source. Rule as the data show it: active = GI50 up to about 1.1 µM and inactive = higher.

Take `CN(C)/C(=N\C#N)NCc1ccccc1`: the GI50 with DMS-273, in the assay on SNB-78, in the assay with LXFL 529, in the assay with DLD-1 and with KM-20L2 was > 100 µM (inactive) each time.
`CCCCCCCCCCCC(=O)OCC1OC(n2cc(F)c(=O)[nH]c2=O)C(NC(=O)OCc2ccccc2)C(OC(=O)CCCCCCCCCCC)C1O` (configuration not stated): the GI50 in the assay on DMS-273, in the assay with SNB-78, in the assay on LXFL 529, with XF498, with DLD-1 and in the assay on KM-20L2 was > 100 µM (inactive) each time. The GI50 in the assay with HOP-18, with DMS-114 and in the assay on RXF 631 was > 100 µM (inactive) in each case.
With `CCCCn1/c(=N/C(=S)N(C)C)ss/c1=N\C(=S)N(C)C`, the GI50 in the assay with DMS-273, in the assay with SNB-78, in the assay on LXFL 529, in the assay with XF498, in the assay with DLD-1 and with KM-20L2 was > 100 µM (inactive) in each case. Besides, the GI50 with HOP-18 is > 100 µM (inactive).
In the case of `C1=C2/CC[C@H](Sc3ccccc3)C2C2(CCCCC/1)OCCO2` (some centres not stated), the GI50 was 25.4 µM (inactive) in the assay on DMS-273; 39.4 µM (inactive) with SNB-78; 22.7 µM (inactive) in the assay with XF498; 33 µM (inactive) with DLD-1; 18.2 µM (inactive) in the assay with KM-20L2; 29.9 µM (inactive) with HOP-18.
With `O=C(O)c1ccccc1NC(=O)C1CCCCC1`, the GI50 in the assay on DMS-273, in the assay with SNB-78, with LXFL 529, in the assay on XF498, with DLD-1 and with KM-20L2 was > 100 µM (inactive) throughout. Also, the GI50 in the assay with DMS-114 and with RXF 631 was > 100 µM (inactive) throughout.
Consider `COc1cccc2c1C(=O)c1c(O)c3c(c(O)c1C2=O)C[C@@](O)(C(C)=O)C[C@@H]3OC1CC(N(C)C)C(O)C(C)O1` (some centres not stated), for which the GI50 is 0.00964 µM (active) in the assay on DMS-273; 0.00873 µM (active) in the assay on SNB-78; 0.00684 µM (active) with LXFL 529; 0.0001 µM (active) in the assay with XF498; 0.0153 µM (active) in the assay on DLD-1; 0.00603 µM (active) in the assay with KM-20L2. The GI50 in the assay on HOP-18 was 0.0859 µM (active); in the assay with DMS-114 it was 0.0475 µM (active).
As to `COc1cc([C@@H]2c3cc4c(c(O)c3C[C@H]3COC(=O)[C@@H]32)OCO4)cc(OC)c1OC` [BETA-PELTATIN A], the GI50 was 0.015 µM (active) in the assay on DMS-273; 0.015 µM (active) in the assay with SNB-78; 0.015 µM (active) with XF498; 0.015 µM (active) in the assay with DLD-1; 1.26 µM (inactive) in the assay on HOP-18; 0.015 µM (active) in the assay on DMS-114.
For `CN(C)c1ccc(/C=C2\CNC/C(=C\c3ccc(N(C)C)cc3)C2=O)cc1`, the GI50 was 12.7 µM (inactive) in the assay on DMS-273; > 100 µM (inactive) in the assay with SNB-78; 37.4 µM (inactive) with LXFL 529; 16.4 µM (inactive) in the assay with XF498; 18.9 µM (inactive) in the assay on DLD-1; 30.1 µM (inactive) in the assay on KM-20L2. For the same compound, the GI50 was 18.9 µM (inactive) in the assay on HOP-18, 18.8 µM (inactive) with DMS-114 and 21.7 µM (inactive) with RXF 631.
With `O=C(CCC1C(=O)NC(=S)NC1=O)c1ccc2ccccc2c1`, the GI50 in the assay on DMS-273, in the assay with SNB-78, in the assay with LXFL 529, with DLD-1, with KM-20L2 and in the assay on HOP-18 was > 100 µM (inactive) each time. Besides, in the assay on DMS-114, the GI50 is > 100 µM (inactive).
As to `CC(C)(C)N1CC1CNC(=O)C(=O)NCC1CN1C(C)(C)C` (configuration not stated), the GI50 in the assay on XF498 was 0.526 µM (active); with DLD-1 it was 0.556 µM (active); in the assay on KM-20L2, 1.65 µM (inactive); with HOP-18 it was 1.07 µM (active); in the assay with DMS-114 it was 0.603 µM (active).
As for `COC(=O)C(C(=O)C(=O)Nc1c(C)cccc1C)c1cnc2ccccc2n1` (configuration not stated), the GI50 in the assay with DMS-273, in the assay with SNB-78, in the assay on LXFL 529, in the assay with XF498, in the assay with KM-20L2 and in the assay on HOP-18 was > 100 µM (inactive) throughout. Further, the GI50 in the assay with DMS-114 and in the assay with RXF 631 was > 100 µM (inactive) throughout.
On to `CN[C@@H](C)[C@H](NC)c1ccccc1`, for which the GI50 in the assay on DMS-273, in the assay with SNB-78, with LXFL 529, in the assay on DLD-1, in the assay on HOP-18 and in the assay with DMS-114 was > 100 µM (inactive) each time. Also, in the assay on RXF 631, the GI50 is > 100 µM (inactive).
As for `C[C@@H]1OC2(O)[C@H]3CCCN3S(=O)(=O)CCN2C1=O` (some centres not stated), the GI50 in the assay on SNB-78 was > 100 µM (inactive); with LXFL 529, > 100 µM (inactive); in the assay on XF498, 0.0306 µM (active); with DLD-1, > 100 µM (inactive); in the assay with KM-20L2 it was > 100 µM (inactive); with HOP-18, > 100 µM (inactive). For the same compound, the GI50 in the assay on RXF 631 is > 100 µM (inactive).
As for `COc1ccc2cc(C(=O)c3ccccc3C(=O)O)ccc2c1`, the GI50 with DMS-273, with LXFL 529, with DLD-1, in the assay with KM-20L2, with HOP-18 and in the assay on DMS-114 was > 100 µM (inactive) in each case.
As to `CN(C)c1ccc2c(=O)c3ccccc3oc2n1`, the GI50 in the assay with DMS-273 is > 100 µM (inactive); in the assay on SNB-78, > 100 µM (inactive); with LXFL 529, 84.3 µM (inactive); in the assay on XF498, > 100 µM (inactive); in the assay with DLD-1, 73.5 µM (inactive); in the assay with KM-20L2 it was > 100 µM (inactive). Further, the GI50 in the assay with DMS-114 is 82.2 µM (inactive); with RXF 631, > 100 µM (inactive).
For the compound `COc1ccc(NC(=O)C(=O)Cc2nc3ccc([N+](=O)[O-])cc3nc2O)c(OC)c1`, the GI50 with DMS-273 was > 100 µM (inactive); in the assay with LXFL 529 it was > 100 µM (inactive); in the assay with DLD-1, > 100 µM (inactive); in the assay with KM-20L2, > 100 µM (inactive); in the assay on HOP-18, 56.1 µM (inactive); in the assay with DMS-114, > 100 µM (inactive).
For the compound `CCN(CC)CCSc1c2ccccc2nc2cc(NCC(=O)Nc3ccccc3-c3ccccc3NC(=O)CNc3ccc4c(SCCN(CC)CC)c5ccccc5nc4c3)ccc12`, the GI50 was > 34.7 µM (inactive) with DMS-273; > 91 µM (inactive) in the assay on LXFL 529; > 100 µM (inactive) in the assay with XF498; > 100 µM (inactive) in the assay with DLD-1; > 100 µM (inactive) in the assay with KM-20L2; > 100 µM (inactive) in the assay on HOP-18. In addition, the GI50 with RXF 631 was > 100 µM (inactive).
As to `COC(=O)/C(=N\NC(=O)C[N+](C)(C)C)C(C(=O)OC)C(=O)C(=O)Nc1ccccc1C(N)=O` (configuration not stated), the GI50 with DMS-273, in the assay with SNB-78, in the assay with LXFL 529, with DLD-1, in the assay with KM-20L2 and in the assay with HOP-18 was > 100 µM (inactive) each time.
In the case of `COc1ccc([Se]c2ccc(OC)cc2)cc1`, the GI50 was 92.5 µM (inactive) in the assay on DMS-273; > 100 µM (inactive) in the assay with XF498; > 100 µM (inactive) with DLD-1; 65.2 µM (inactive) with KM-20L2; 27.9 µM (inactive) with HOP-18; 29.1 µM (inactive) in the assay with DMS-114.
Turning to `COc1ccc(NC(=O)CSc2nnc(-c3ccc(/N=C\c4ccc(Cl)cc4)cc3)o2)cc1`, the GI50 with DMS-273 was 26.8 µM (inactive); in the assay with SNB-78 it was 24.9 µM (inactive); with LXFL 529, 16.5 µM (inactive); in the assay on XF498 it was 17.1 µM (inactive); in the assay on KM-20L2, 39.6 µM (inactive); in the assay with HOP-18, 12.5 µM (inactive). The GI50 in the assay with DMS-114 was 15.2 µM (inactive).
For the compound `CCCCCCCCCCCC(=O)OC(COC(N)=O)COc1ccc(Cl)cc1` (configuration not stated), the GI50 in the assay on DMS-273 is 20.9 µM (inactive); in the assay on SNB-78, 24.3 µM (inactive); with LXFL 529, 20.8 µM (inactive); in the assay on XF498, 21.4 µM (inactive); in the assay on DLD-1, 38 µM (inactive); in the assay on KM-20L2 it was 37.8 µM (inactive). Further, the GI50 was 11.3 µM (inactive) in the assay on HOP-18, 17.3 µM (inactive) with DMS-114 and 26.2 µM (inactive) in the assay on RXF 631.
On to `CCCCCCCCCCCCCCCCCC(=O)Nc1ccn(C2OC(CO)C(O)C2O)c(=O)n1` (configuration not stated), for which the GI50 with DMS-273 is 14.3 µM (inactive); in the assay with SNB-78 it was > 100 µM (inactive); with LXFL 529, > 100 µM (inactive); in the assay with DLD-1 it was > 100 µM (inactive); in the assay with KM-20L2, 32.1 µM (inactive); in the assay with HOP-18 it was > 100 µM (inactive).
As for `CC(=O)NC1C(=O)CC(c2ccccc2)N(C)C1c1ccccc1` (configuration not stated), the GI50 with DMS-273, with SNB-78, in the assay on LXFL 529, with DLD-1, in the assay on KM-20L2 and with DMS-114 was > 100 µM (inactive) each time. Further, in the assay on RXF 631, the GI50 is > 100 µM (inactive).
Consider `Nc1ccc2c(c1)CN1C(=O)c3ccccc3C1=N2` [DANIQUIDONE], for which the GI50 in the assay with DMS-273 was 32.4 µM (inactive); in the assay with SNB-78, 25 µM (inactive); in the assay on LXFL 529, 82.8 µM (inactive); in the assay on DLD-1 it was 51.1 µM (inactive); in the assay on KM-20L2 it was 59 µM (inactive); with HOP-18 it was 108 µM (inactive). Also, the GI50 in the assay with DMS-114 is 70.5 µM (inactive).

Values taken from ChEMBL document CHEMBL1201862, “PubChem BioAssay data set” (2004).
